Here are results for 7 molecules from patent US12239646B2, “Cancer diagnostic and treatment” (DANA-FARBER CANCER INSTITUTE, INC., priority 2017, dated 2025).

Series [1] deals with COCA36F3 F. nucleatum (colorectal cancer isolate). The experiment in a line: Validation of inhibitor hits, dose response curves. The class given is cell-based, Fusobacterium nucleatum. The conditions noted are these: 8-point, 2-fold dilutions, range 30-0.23 μM. How it is done:
FIG. 18 depicts validation of inhibitor hits (and related compounds). […] Validation/dose plates: 8-point, 2-fold dilutions, range 30-0.23 μM. Dose Response Curves [0.32-30 μM]: COCA36F3 F. nucleatum (colorectal cancer isolate).
(§1) A method for determining the threshold to identify inhibitor hits was established and carried out (FIG. 16). […] Validation of inhibitor hits and related compounds was carried out and dose response was determined for 5-FU, carmofur, and tegafur (FIG. 18). Validation of inhibitor hits was also carried out with additional patient CRC isolates of Fusobacterium (FIG. 19). […] Applicants also investigated whether the presence of Fusobacterium in colorectal tumors can explain patient response to 5-FU-based therapies. Data of 91 patient colorectal adenocarcinoma tumors with recurrence were obtained by Fusobacterium culture and bacterial 16s rRNA sequencing analysis.

The test system of series [2] is Fusobacterium nucleatum. The experiment in a line: Pilot compound screen for inhibition of Fusobacterium growth (BacTiter Glow luminescence). The class given is cell-based. The following applies: 32 μM, in duplicate, 48 hours anaerobic; hit cut-off 3 SD from mean of neutral controls. How it is done: FIG. 16 depicts determining threshold to identify inhibitor hits. Neutral Control=untreated F. nucleatum. Inhibitor Control=F. nucleatum treated with metronidazole. 3 SD from mean of neutral controls=−86% inhibition hit cut-off.
FIG. 17 depicts identifying compounds that inhibit Fusobacterium growth. […] 3 SD from mean of neutral controls=−86% inhibition hit cut-off. 34 inhibitory compounds identified.
A pilot screen containing 1,846 compounds (in duplicate), at [32 μM] was carried out. Approximately 1-2×10^6 Fusobacterium nucleatum cells/ml was seeded and incubated anaerobically for 48 hours. The read out was by the addition of BacTiter Glow and luminescence read out.
as §1

The test system of series [3] is patient colorectal cancer isolates of Fusobacterium nucleatum and Fusobacterium necrophorum. The experiment in a line: Validation with additional patient CRC isolates of Fusobacterium. It is filed as cell-based. The following applies: compared with plasma levels of treated patients (Takimoto et al. 1999). How it is done: FIG. 19 depicts validation of with additional patient CRC isolates of Fusobacterium. […] (Takimoto et al., Clinical cancer research: an official journal of the American Association for Cancer Research 5, 1347-1352 (1999)).
as §1

Series [4] has as its system Fusobacterium-positive colorectal tumors. Description: Recurrence/metastasis of patient colorectal adenocarcinoma tumors by Fusobacterium status and 5-FU treatment. The following applies: 91 patient tumors with recurrence data; 43 patients treated with 5-FU or a 5-FU prodrug; p<0.05. As for the experimental part: FIG. 20 illustrates a comparison between tumors treated with 5-FU or a 5-FU prodrug (right panel) and tumors with no treatment (left panel). A total of 91 patient colorectal adenocarcinoma tumors with recurrence data were analyzed by Fusobacterium culture and bacterial 16s rRNA sequencing.
as §1

The conditions of series [5]: during chemotherapy for adenocarcinoma of the small bowel; cited from earlier work.
Series [6] relates to Fusobacterium species. The following applies: cited from earlier work; for general susceptibility of the species: background statement on Fusobacterium.
Series [7] deals with F. nucleatum strains isolated from COCA36 primary tumor and derived xenografts. The experiment in a line: Antibiotic sensitivity testing (E-test) of clinical F. nucleatum isolates. The conditions noted are these: for MIC: Fusobacterium nucleatum. It is filed as cell-based, Fusobacterium nucleatum. How it is done: FIG. 14: Antibiotic sensitivity testing (E-test) of clinical F. nucleatum isolates. E-test on F. nucleatum strains isolated from COCA36 primary tumor and derived xenografts. All E-tests were carried out in triplicate on both FAA agar. The antibiotics tested were metronidazole (MZ), cefoxitin (FX) and imipenem (IP). All F. nucleatum strains tested were sensitive to cefoxitin and metronidazole in vitro: test range was 0.016 to 256 ug/ml. […] The F. nucleatum strains tested were resistant/hetero-resistant to imipenem in vitro.
A 1 McFarland solution, in TSB, was prepared from Fusobacterium strains grown for 24-48 hours on FAA under anaerobic conditions. Using a sterile cotton swab, each Fusobacterium strain were inoculated onto antibiotic free blood agar (FAA) and E-test strip (bioMérieux) for Metronidazole (MZ), Clindamycin (CM), Cefoxitin (FX) and Imipenem (IP) were incubated for up to 72 hours and sensitivity checked after 48 hours. Each sensitivity assay was conducted in triplicate. An FAA blood plate inoculated with each Fusobacterium strain, but without the E-test strip, was used as a growth control.

The test system of series [8] is Fusobacterium-positive PDX tumors (COCA36). Description: In vivo metronidazole trial, tumor volume of Fusobacterium-positive PDX. Set-up: species or system nude mice (Nu/Nu). The following applies: 100 mg/kg/day oral gavage, approximately 3 weeks, vs vehicle; p=0.0005. As for the experimental part:
Animals bearing tumors (with volumes <250 mm^3) were randomized into statistically identical cohorts and treated with 100 mg/kg/day of metronidazole (Sigma Aldrich, USA), (suspension in 0.5% methylcellulose) or with the vehicle alone (0.5% methylcellulose) by oral gavage, daily, for approximately 3 weeks.
(§2) Nu/nu mice were raised in the specific-pathogen-free (SPF) conditions with autoclaved food and water. For both patient and HT-29 cell derived xenografts, tumor size was measured by caliper every Monday, Wednesday and Friday each week. Tumor volume was calculated using the formula: Volume=0.5×L×W^2 and growth rate was measured by calculating the percentage increase in volume. Tumor measurements were carried out in a blinded approach. Mouse body weight was recorded every 3 to 7 days. Mice were euthanized when the tumor diameter reached 2 cm or following the 3 weeks of drug treatment. Tissues were cryopreserved in Bambanker cell freezing media (Wako Chemicals USA) or snap frozen in liquid nitrogen and stored at −80° C. PDX experiments were performed with 22 (untreated group) and 24 (treated group) mice at timepoint zero, over three independent trials. HT-29 derived xenograft experiments were performed with 20 (untreated group) and 19 (treated group) mice at timepoint zero, over two independent trials. […]

In series [9] the test system is Fusobacterium-free xenografts derived from HT-29 colon adenocarcinoma cells. The experiment in a line: In vivo metronidazole trial, Fusobacterium-free HT-29 cell line xenograft. Set-up: species or system nude mice (Nu/Nu). The conditions noted are these: 100 mg/kg/day oral gavage, approximately 3 weeks, vs vehicle; p>0.05 at all timepoints. How it is done: For HT-29 cell line xenograft experiments, approximately 1×10^6 HT29 cells were suspended in PBS, mixed 1:1 with Matrigel (BD Biosciences), and injected subcutaneously into the flanks of nude mice (Nu/Nu; Taconic) in a final volume of 100 μL. Following 10-14 days post implantation, mice were randomized into statistically identical cohorts and treated with 100 mg/kg/day of metronidazole (suspension in 0.5% methylcellulose) or with vehicle alone by oral gavage daily for approximately 3 weeks.
as §2, with “trials.” for “trials. HT-29 derived xenograft experiments were performed with 20 (untreated group) and 19 (treated group) mice at timepoint zero, over two independent trials.”

Series [10] has as its system Fusobacterium. Description: Fusobacterium-targeted qPCR on PDX tissue after treatment. It is filed as in vivo, Fusobacterium species in PDX (COCA36) in Nu/Nu mice. The following applies: PDX COCA36, metronidazole vs vehicle; p=0.002. How it is done: A custom TaqMan primer/probe set was used to amplify Fusobacterium species DNA (Integrated DNA technologies, CA) as previously described (28). The cycle threshold (Ct) values for Fusobacterium species were normalized to the amounts of human genomic DNA in each reaction by using a primer and probe set for the prostaglandin transporter (PGT) reference gene, and the fold difference (2^−ΔCt) in Fusobacterium load in tumor tissue was calculated as described before (8). Each reaction contained 100 ng of genomic DNA and was assayed in triplicate in 20 μL reactions containing 1× final concentration TaqMan Universal Master Mix (Applied Biosystems) and each TaqMan Gene Expression Assay (Applied Biosystems), in a 96-well optical PCR plate. Amplification and detection of DNA was performed with the ABI 7300 Real-Time PCR System (Applied Biosystems) using the following reaction conditions: 10 min at 95° C. and 42 cycles of 15 s at 95° C. and 1 min at 60° C. Cycle thresholding (Ct) was calculated using the automated settings (Applied Biosystems). The primer and probe sequences for each TaqMan Gene Expression Assay were as follows (SEQ ID. 1-6): Fusobacterium species forward primer, 5′-[…]-3′; Fusobacterium species reverse primer, 5′-[…]-3′; Fusobacterium species FAM probe, 5′-[…]-3′. […]
A general note: Real-time PCR tracks product formation cycle by cycle.

Series [11] has as its system PDX tumors (COCA36), tumor cell proliferation. The experiment in a line: In vivo BrdU incorporation assay (IHC) of PDX tumors. More on the design: species or system nude mice (Nu/Nu). The conditions noted are these: n=6 per arm, three weeks treatment vs vehicle, p=0.0015. As for the experimental part:
Bromodeoxyuridine (BrdUrd) solution (10 mg/mL, 0.2 mL/mouse) was administered via intraperitoneal injection 16 hours after the last dose of metronidazole or vehicle. After 2 additional hours, mice were sacrificed and tumors were fixed in 10% formalin for immunohistochemistry (IHC) analysis. A total of 6 animals per arm, that were treated with metronidazole or the vehicle for three weeks were randomly selected, over two independent trials, for BrdU incorporation analysis. IHC was performed on 4-μm sections of formalin-fixed paraffin-embedded samples. Tissue sections were deparaffinized and rehydrated, and antigen retrieval was performed in 10 mmol/L citrate buffer (pH 6.0) in a 750 W microwave oven at […] for 30 minutes for BrdU staining, BrdU primary antibody (BD Biosciences, #347580) was added at a dilution of 1:100 and incubated for 1 hour at room temperature. Sections were further processed with horseradish peroxidase-conjugated secondary antibody. The reaction was detected by 3,3-diaminobenzidine and hematoxylin staining. Images were obtained with an Olympus CX41 microscope and QCapture software (QImaging).

Series [12] relates to ETBF induced murine colonic tumors. The conditions noted are these: DeStefano Shields et al. 2016; cited from earlier work.
[13] abbreviates: E-test on FAA agar, triplicate, test range 0.016 to 256 ug/ml, no bacterial growth at 0.016 ug/ml, read-out: MIC.

“Also recorded” adds a separate entry of the source. Where two headings read alike, the source gives them in different places.

As for `CCCCCCNC(=O)n1cc(F)c(=O)[nH]c1=O` [carmofur], the results for the “inhibition of Fusobacterium growth, dose response validation” value in [1] and in [1] (listed as Carmofur) were “even more potent in killing Fusobacterium than the active drug 5-FU” and “potent inhibitor of Fusobacterium growth”, respectively.

Consider `O=c1[nH]cc(F)c(=O)[nH]1` [5-FU, 5-fluorouracil], for which, in series [2], the “inhibition of F. nucleatum growth in pilot screen” value was “significantly inhibit F. nucleatum growth; also recorded: potent inhibitor of Fusobacterium growth”. Besides, the entries for the “inhibition of Fusobacterium growth, patient CRC isolates” value in [3] and in series [3] (listed as 5-Fluorouracil) were “inhibits Fusobacterium growth at levels comparable to achievable doses in plasma of treated patients; also recorded: potent inhibitors of Fusobacterium growth; also recorded: within a range comparable to patient plasma levels when receiving 5-fluorouracil infusion” and “inhibits Fusobacterium growth at levels comparable to achievable doses in plasma of treated patients”, respectively. The “recurrence/metastasis of Fusobacterium-positive colorectal tumors” value in series [4] is on record as “less likely to develop recurrence/metastasis”. Besides, in series [5], the cardiotoxicity entry was “associated with cardiotoxicity”.

Regarding penicillin, the “general susceptibility of the species” value in series [6] was “susceptible”.

With `O=C(N[C@H](CO)[C@H](O)c1ccc([N+](=O)[O-])cc1)C(Cl)Cl` [chloramphenicol], in series [6], the “general susceptibility of the species” value is recorded as “susceptible”.

As to `CC[C@H]1OC(=O)[C@H](C)[C@@H](O[C@H]2C[C@@](C)(OC)[C@@H](O)[C@H](C)O2)[C@H](C)[C@@H](O[C@@H]2O[C@H](C)C[C@H](N(C)C)[C@H]2O)[C@](C)(O)C[C@@H](C)C(=O)[C@H](C)[C@@H](O)[C@]1(C)O` [erythromycin], the “general susceptibility of the species” value in series [6] is on record as “resistant”.

In the case of `Cc1ncc([N+](=O)[O-])n1CCO` [metronidazole], in series [7] (E-test on FAA agar, triplicate), the “in vitro antibiotic sensitivity (sensitive / resistant)” value is recorded as “sensitive”. For the same molecule, the MIC in series [7] (setting [13]) was less than 0.016 µg/mL; in [7] (F. nucleatum isolates from the PDX, read-out: minimum inhibitory concentration), less than 0.016 µg/mL. For the same molecule, the “tumor growth (percentage tumor volume increase), Fusobacterium-positive PDX” value in series [8] is reported as “reduces tumor growth rate; also recorded: statistically significant decrease in tumor growth”. Further, in series [9], the “tumor growth (percentage tumor volume increase), Fusobacterium-free HT-29 xenograft” value is “no significant decrease in tumor growth; also recorded: not statistically significant”. For the same molecule, the “Fusobacterium load in the tumor tissue” value in series [10] was “significant decrease in Fusobacterium load; also recorded: decreases Fusobacterium load”. For the same molecule, the “tumor cell proliferation (BrdU incorporation)” value in [11] was “reduces tumor growth rate and cancer cell proliferation; also recorded: significant reduction in tumor cell proliferation; also recorded: decreased cancer cell proliferation”. For the same molecule, the “inhibition of F. nucleatum growth in pilot screen” value in series [2] is “significantly inhibit F. nucleatum growth”. For the same molecule, the “reported sensitivity of Fusobacteria” value in [6] (Lofmark et al. 2010) is reported as “highly sensitive”.

Consider `CO[C@@]1(NC(=O)Cc2cccs2)C(=O)N2C(C(=O)O)=C(COC(N)=O)CS[C@@H]21` [cefoxitin], for which the “in vitro antibiotic sensitivity (sensitive / resistant)” value in series [7] (E-test on FAA agar, triplicate) is reported as “sensitive”. Also, the MIC in [7] (setting [13]) was less than 0.016 µg/mL. The “tumorigenesis in ETBF induced murine colonic tumors” value in [12] is “reduction in tumorigenesis”.
